{"source": "patent US20120022147A1", "about": "“2, 6 XYLIDINE DERIVATIVES FOR THE TREATMENT OF PAIN” (KRISANI BIOSCIENCES (P) LTD, priority 2011, published 2012)", "test_system": "spinal nerve ligation model for neuropathic pain in rats", "assay": "Von Frey test for mechanical allodynia in the spinal nerve ligation (Chung) model of neuropathic pain", "assay_type": "in vivo, rat", "settings": "for mean Von Frey force required for withdrawal of left operated leg, Baseline: baseline before surgery and treatment", "text": "Experimental animals were male SD rats with a starting weight of 230-250 grams. Total number of animals were n=90 for surgery and n=60 after selection. The animals were caged in groups of 3 in a temperature and humidity controlled area. They were maintained on a 12 hr light/dark cycle and had ad libitum access to food and water. Rodent models of neuropathic pain are used to investigate the underlying mechanisms of pain associated with damage to peripheral nerves and to evaluate the efficacy of novel. Tactile sensitivity was measured 7-21 days post-surgery using von Frey monofilaments before and following treatment with gabapentin and other compounds (La Buda et al. 2005).\nNeuropathic pain inducement was done by following principles of Chung induced model. The SD rats were anesthetized using ketamine/xylazine sodium. The rats were shaved and placed in prone position for surgery. The L5-L6 spinal nerves were surgically litigated. The rats were returned to their cages for recuperation and recovery under comfortable warm conditions using heat lamps.\nAfter seven days of surgery a pre selection was performed. Animals that indicate signs of post operative pain were to be selected to proceed. Pain is detected by observing when one or more of the criteria are met as follows. Licking of the operated paw, accompanied by gentle biting or pulling on the nails with the mouth; placing the leg in the air; bearing weight on the side contra-lateral to the nerve injury; deformities of the hind paw and abnormal posture and walking; weakness of the left hind paw. […] However, the animal must be able to move its leg to ensure that the L4 spinal nerve is intact. If the animal cannot move its leg, it was excluded from the study.\nSecond level of selection of the rats was done on day 14 after the surgery. Von Frey test was performed on the preselected rats after day 7 on day 14. Using Von Frey methodology, animals with a pain threshold of ≦26 g for the operated leg will be included in the study. After this selection step, the animals were randomly placed into their experimental groups.\nBlank, positive control and test compound: Blank was just the medium used for dissolving other compounds. The positive control was Gabapentin and the test compound was the final compound of formula 1 discussed in the instant disclosure. Three types of experimental groups were formed. Different types of chemicals such as Vehicle and Control were used to determine the efficacy of the chemicals as well comparison of the instant disclosed compound of formula 1, with a positive control was performed. The final compound of the instant disclosure was administered at 100 mg/kg and 150 mg/kg body weight as two different groups. The Gabapentin was administered at 150 mg/kg body weight.\nOn day 14 blank compound and final compound will be administered once daily starting on study day 14 through study day 21. Gabapentin, the positive control, will be administered 2 hours prior to pain testing on study days 14 and 21. The Von Frey test was be performed prior to final compound administration (pre-final compound injection) and after final compound administration at 0.5 hours, 2 hours and 4.5 hours post-final compound injection on study days 14 and 21. Additionally, if the Von Frey response for the operated leg of one of the six treatment groups is significant at 4.5 hours, all the groups will be tested again at 6.5 hours. In all instances, unless decided otherwise in the course of the study, all dosing solutions are applied as once a day intra peritoneal (IP) administration on each of the repeated dosing sessions. After the termination of the study the animals were euthanized.\nPain Response Evaluation: Pain response was evaluated using Von Frey test for mechanical allodynia. The Von Frey test for mechanical allodynia is based on applying short pulses of pressure that are not painful to a naïve animal. […]", "key": {"[1]": {"settings": "150 mg/kg IP, study days 14 and 21"}, "[2]": {"settings": "Table 9 (day 14), male SD rats, mean"}, "[3]": {"settings": "Table 10 (day 21), male SD rats"}, "[4]": {"settings": "study day 14, before first dose, male SD rats"}, "[5]": {"settings": "study day 14, 150 mg/kg IP, male SD rats"}, "[6]": {"settings": "study day 14, 150 mg/kg IP, male SD rats, 150 mg/kg"}, "[7]": {"settings": "study day 14, 150 mg/kg IP, male SD rats, listed as gabapentin, 150 mg/kg"}, "[8]": {"settings": "study day 21, before that day's dose, KRB-5b once daily from day 14, gabapentin on days 14 and 21, 150 mg/kg IP"}, "[9]": {"settings": "study day 21, 150 mg/kg IP, male SD rats"}, "[10]": {"settings": "study day 21, 150 mg/kg IP, male SD rats, 150 mg/kg"}}, "note": "Several values for one entry are separate records, joined by “and”; a condition that tells them apart may be missing. Equal entries are not always repeated. Marks after values point to notes of the source that are not given here.", "data": [{"compound": "NCC1(CC(=O)O)CCCCC1", "note": "[Gabapentin, reference compound]", "values": [{"measurement": "analgesic effect on mechanical allodynia compared to Vehicle (in words)", "setting": "[1]", "result": "active only at 2 hours post dosing"}, {"measurement": "mean Von Frey force required for withdrawal of left operated leg, Baseline", "setting": "[2]", "result": 60.00, "unit": "g"}, {"measurement": "mean Von Frey force required for withdrawal of left operated leg, Baseline", "setting": "[3]", "result": 60, "unit": "g"}, {"measurement": "mean Von Frey force required for withdrawal of left operated leg, Pre-treatment", "setting": "[4]", "result": 9.69, "unit": "g"}, {"measurement": "mean Von Frey force required for withdrawal of left operated leg, 30 min Post treatment", "setting": "[5]", "result": 9.85, "unit": "g"}, {"measurement": "mean Von Frey force required for withdrawal of left operated leg, 6.5 hr Post treatment", "setting": "[5]", "result": 10.69, "unit": "g"}, {"measurement": "mean Von Frey force required for withdrawal of left operated leg, 2 hr Post treatment", "setting": "[6]", "result": "35.69* g"}, {"measurement": "mean Von Frey force required for withdrawal of left operated leg, 4.5 hr Post treatment", "setting": "[6]", "result": 10.69, "unit": "g"}, {"measurement": "mean Von Frey force required for withdrawal of left operated leg, 2 hr Post treatment", "setting": "[7]", "result": "35.69 ± 5.69", "unit": "g"}, {"measurement": "mean Von Frey force required for withdrawal of left operated leg, 4.5 hr Post treatment", "setting": "[7]", "result": "10.69 ± 1.42", "unit": "g"}, {"measurement": "mean Von Frey force required for withdrawal of left operated leg, Pre-treatment", "setting": "[8]", "result": 7.92, "unit": "g"}, {"measurement": "mean Von Frey force required for withdrawal of left operated leg, 30 min Post treatment", "setting": "[9]", "result": 9.85, "unit": "g"}, {"measurement": "mean Von Frey force required for withdrawal of left operated leg, 6.5 hr Post treatment", "setting": "[9]", "result": 9.62, "unit": "g"}, {"measurement": "mean Von Frey force required for withdrawal of left operated leg, 2 hr Post treatment", "setting": "[10]", "result": "48.69±4.96 g and 48.69* g"}, {"measurement": "mean Von Frey force required for withdrawal of left operated leg, 4.5 hr Post treatment", "setting": "[10]", "result": 10.62, "unit": "g"}, {"measurement": "mean Von Frey force required for withdrawal of left operated leg, 4.5 hr Post treatment", "setting": "study day 21, 150 mg/kg IP, male SD rats, listed as gabapentin, 150 mg/kg", "result": "10.62 ± 0.90", "unit": "g"}]}, {"compound": "CCN(CCOC(=O)CCCCC1CCSS1)CC(=O)Nc1c(C)cccc1C", "note": "(stereo not shown) [KRB-5b]", "values": [{"measurement": "analgesic activity compared to gabapentin (in words)", "setting": "[1]", "result": "prolonged analgesic activity compared to gabapentin"}, {"measurement": "analgesic effect on mechanical allodynia compared to Vehicle (in words)", "setting": "[1]", "result": "effective as a pain analgesic item"}, {"measurement": "analgesic effect on mechanical allodynia compared to Vehicle (in words)", "setting": "150 mg/kg IP, study days 14 and 21, listed as formula 1", "result": "effective in treating the spinal nerve ligation model for neuropathic pain in rats"}, {"measurement": "mean Von Frey force required for withdrawal of left operated leg, Baseline", "setting": "[2]", "result": 60.00, "unit": "g"}, {"measurement": "mean Von Frey force required for withdrawal of left operated leg, Baseline", "setting": "[3]", "result": 60, "unit": "g"}, {"measurement": "mean Von Frey force required for withdrawal of left operated leg, Pre-treatment", "setting": "[4]", "result": 11.00, "unit": "g"}, {"measurement": "mean Von Frey force required for withdrawal of left operated leg, 30 min Post treatment", "setting": "[5]", "result": 19.60, "unit": "g"}, {"measurement": "mean Von Frey force required for withdrawal of left operated leg, 6.5 hr Post treatment", "setting": "[5]", "result": 16.40, "unit": "g"}, {"measurement": "mean Von Frey force required for withdrawal of left operated leg, 2 hr Post treatment", "setting": "[6]", "result": "39.00±7.19 g and 39.00* g"}, {"measurement": "mean Von Frey force required for withdrawal of left operated leg, 4.5 hr Post treatment", "setting": "[6]", "result": "44.20±6.55 g and 44.20*# g"}, {"measurement": "mean Von Frey force required for withdrawal of left operated leg, Pre-treatment", "setting": "[8]", "result": 15.40, "unit": "g"}, {"measurement": "mean Von Frey force required for withdrawal of left operated leg, 30 min Post treatment", "setting": "[9]", "result": 17.50, "unit": "g"}, {"measurement": "mean Von Frey force required for withdrawal of left operated leg, 2 hr Post treatment", "setting": "[9]", "result": "21.30# g"}, {"measurement": "mean Von Frey force required for withdrawal of left operated leg, 6.5 hr Post treatment", "setting": "[9]", "result": 10.80, "unit": "g"}, {"measurement": "mean Von Frey force required for withdrawal of left operated leg, 4.5 hr Post treatment", "setting": "[10]", "result": "26.20±5.81 g and 26.20*# g"}]}]}
